Reference: publication PMC12687421, “Characterisation of an allosteric site in PLCγ enzymes and implications for development of their specific inhibitors” (Biochemical Journal, 2025)
pIC50, pKd: −log10 of the molar value.

Experiments:
[1] = biological target: T1, PLCγ1^wt (Homo sapiens, UniProt P19174, I813T); assay: PLC activity assay 1 (A1), XY-69 substrate in liposomes, nucleotide inhibition; type: biochemical; settings: for pIC50: XY-69 in liposomes, mean and SD, nine replicates
T1 construct: specific activities of PLCγ1^wt and PLCγ2^wt full-length proteins; made in house; host or cells: Escherichia coli T7 Express lysY/Iq
T1 sequence (P19174 1-1291 isoform P19174-2 I813T): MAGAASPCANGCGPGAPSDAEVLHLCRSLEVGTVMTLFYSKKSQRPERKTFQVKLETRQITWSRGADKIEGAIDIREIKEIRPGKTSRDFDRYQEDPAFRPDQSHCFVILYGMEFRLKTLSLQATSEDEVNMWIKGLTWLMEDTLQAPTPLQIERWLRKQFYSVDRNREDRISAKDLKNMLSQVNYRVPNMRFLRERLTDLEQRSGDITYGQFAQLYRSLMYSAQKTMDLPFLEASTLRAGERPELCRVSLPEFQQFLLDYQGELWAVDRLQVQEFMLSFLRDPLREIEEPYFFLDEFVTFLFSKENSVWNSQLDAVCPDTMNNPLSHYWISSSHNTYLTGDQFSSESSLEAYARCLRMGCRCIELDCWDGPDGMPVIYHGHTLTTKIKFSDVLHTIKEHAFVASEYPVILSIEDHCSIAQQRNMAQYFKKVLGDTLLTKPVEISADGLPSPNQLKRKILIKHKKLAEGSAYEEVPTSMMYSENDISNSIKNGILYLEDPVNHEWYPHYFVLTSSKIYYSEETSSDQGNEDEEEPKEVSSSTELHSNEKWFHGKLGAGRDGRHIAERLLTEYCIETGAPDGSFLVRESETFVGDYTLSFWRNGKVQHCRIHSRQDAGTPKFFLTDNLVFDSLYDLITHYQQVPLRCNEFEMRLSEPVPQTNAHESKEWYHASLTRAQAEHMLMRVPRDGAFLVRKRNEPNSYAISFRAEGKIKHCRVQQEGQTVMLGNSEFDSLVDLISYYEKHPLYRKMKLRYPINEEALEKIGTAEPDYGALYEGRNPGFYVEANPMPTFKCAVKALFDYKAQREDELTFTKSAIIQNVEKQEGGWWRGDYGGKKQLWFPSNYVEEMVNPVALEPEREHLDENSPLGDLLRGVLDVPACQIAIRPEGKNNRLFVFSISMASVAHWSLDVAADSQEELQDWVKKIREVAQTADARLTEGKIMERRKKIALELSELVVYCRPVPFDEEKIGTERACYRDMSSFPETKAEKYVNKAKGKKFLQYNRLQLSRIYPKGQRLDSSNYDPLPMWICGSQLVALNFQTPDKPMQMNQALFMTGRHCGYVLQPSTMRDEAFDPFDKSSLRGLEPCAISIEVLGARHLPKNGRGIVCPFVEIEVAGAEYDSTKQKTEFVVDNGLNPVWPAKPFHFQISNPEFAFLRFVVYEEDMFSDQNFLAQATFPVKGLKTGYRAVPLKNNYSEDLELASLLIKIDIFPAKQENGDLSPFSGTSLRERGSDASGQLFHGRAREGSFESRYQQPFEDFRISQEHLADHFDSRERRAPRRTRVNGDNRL

[2] = biological target: T1, PLCγ1^wt; assay: Microscale thermophoresis (MST) binding; settings: one-site binding model
Method: Proteins were diluted to 200 nM in MST buffer [50 mM Hepes.KOH, 70 mM KCl, 5% (v/v) glycerol, 0.05% (v/v) Tween-20, 2 mM DTT (pH 7.5)] and subsequently labelled by adding an equal volume of 100 nM 2nd generation RED-Tris-NTA labelling dye and incubating for 30 minutes. […] An equal volume of labelled protein was added to each ligand concentration and the mixture taken up into a standard MST capillary. Samples were measured in a Monolith NT.115 pico instrument (Nanotemper) using the Nano-RED channel. Excitation power was set to 5% and MST power set to high. All experiments were performed at 25°C. All data were analysed using the manufacturer’s MO.Control software and repeated at least three times with representative experiments shown.

[3] = biological target: T2, PLCδ1 (Homo sapiens, UniProt P51178); assay: PLC activity assay 1 (A1), PLCδ1; type: biochemical; settings: substrate in solution or in lipid vesicles (Figure 3C, D); except small changes at very high concentration
T2 construct: made in house; host or cells: Escherichia coli T7 Express lysY/Iq
T2 sequence (P51178 1-756): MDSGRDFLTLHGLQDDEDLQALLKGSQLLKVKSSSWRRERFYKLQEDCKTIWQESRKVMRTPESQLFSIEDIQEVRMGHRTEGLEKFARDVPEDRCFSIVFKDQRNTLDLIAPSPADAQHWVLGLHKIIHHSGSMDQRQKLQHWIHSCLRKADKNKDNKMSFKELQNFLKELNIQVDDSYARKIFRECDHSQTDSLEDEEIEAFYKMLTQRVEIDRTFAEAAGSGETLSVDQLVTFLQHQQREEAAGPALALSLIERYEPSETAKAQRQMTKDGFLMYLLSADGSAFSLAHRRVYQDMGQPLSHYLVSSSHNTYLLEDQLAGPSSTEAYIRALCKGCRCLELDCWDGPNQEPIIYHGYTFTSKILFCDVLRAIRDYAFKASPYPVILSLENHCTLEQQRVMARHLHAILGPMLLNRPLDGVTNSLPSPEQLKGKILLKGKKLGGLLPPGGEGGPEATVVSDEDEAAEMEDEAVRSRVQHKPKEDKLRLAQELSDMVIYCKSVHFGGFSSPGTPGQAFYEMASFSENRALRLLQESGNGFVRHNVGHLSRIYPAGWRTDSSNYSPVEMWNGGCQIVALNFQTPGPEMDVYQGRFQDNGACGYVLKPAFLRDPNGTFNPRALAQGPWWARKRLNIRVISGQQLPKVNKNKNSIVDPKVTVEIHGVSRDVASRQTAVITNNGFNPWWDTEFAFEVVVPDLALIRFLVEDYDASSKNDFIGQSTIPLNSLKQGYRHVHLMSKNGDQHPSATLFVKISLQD

[4] = biological target: T3, PLCβ2 (Homo sapiens, UniProt Q00722); assay: PLC activity assay 1 (A1), PLCβ2; type: biochemical; settings: substrate in solution or in lipid vesicles (Figure 3C, D); except small changes at very high concentration
T3 construct: made in house; host or cells: Escherichia coli T7 Express lysY/Iq
T3 sequence (Q00722 whole entry, species assumed): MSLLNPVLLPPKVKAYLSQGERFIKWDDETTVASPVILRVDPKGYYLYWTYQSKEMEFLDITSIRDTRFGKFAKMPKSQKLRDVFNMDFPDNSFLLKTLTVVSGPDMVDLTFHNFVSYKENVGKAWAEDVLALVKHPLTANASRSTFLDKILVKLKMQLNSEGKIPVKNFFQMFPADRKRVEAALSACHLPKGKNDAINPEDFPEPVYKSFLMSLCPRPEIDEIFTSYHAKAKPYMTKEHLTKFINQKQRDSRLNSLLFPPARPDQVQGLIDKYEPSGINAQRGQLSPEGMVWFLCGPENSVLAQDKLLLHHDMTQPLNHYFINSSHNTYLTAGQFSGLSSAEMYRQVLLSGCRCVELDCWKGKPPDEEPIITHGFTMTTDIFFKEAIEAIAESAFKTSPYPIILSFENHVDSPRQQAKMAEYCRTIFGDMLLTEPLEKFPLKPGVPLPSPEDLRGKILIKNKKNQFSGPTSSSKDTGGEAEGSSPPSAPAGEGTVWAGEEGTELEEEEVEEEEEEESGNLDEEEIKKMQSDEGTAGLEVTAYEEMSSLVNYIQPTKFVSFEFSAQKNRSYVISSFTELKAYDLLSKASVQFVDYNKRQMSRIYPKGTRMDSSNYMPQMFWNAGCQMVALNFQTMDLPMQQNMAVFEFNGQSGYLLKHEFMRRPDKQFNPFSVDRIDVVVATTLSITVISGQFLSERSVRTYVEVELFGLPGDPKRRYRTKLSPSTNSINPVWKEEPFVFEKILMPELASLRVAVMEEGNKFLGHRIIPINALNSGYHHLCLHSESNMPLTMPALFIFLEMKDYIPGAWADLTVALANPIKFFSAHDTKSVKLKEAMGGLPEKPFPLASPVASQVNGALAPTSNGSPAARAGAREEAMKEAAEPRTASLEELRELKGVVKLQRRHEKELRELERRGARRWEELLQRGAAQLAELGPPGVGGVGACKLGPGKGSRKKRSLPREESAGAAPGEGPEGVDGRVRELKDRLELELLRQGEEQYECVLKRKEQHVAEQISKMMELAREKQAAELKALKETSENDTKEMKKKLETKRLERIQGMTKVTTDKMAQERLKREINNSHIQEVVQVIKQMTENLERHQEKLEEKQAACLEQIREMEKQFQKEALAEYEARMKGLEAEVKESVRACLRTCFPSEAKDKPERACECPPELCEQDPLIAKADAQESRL

Row | pIC50 [1] | pKd [2] | effect on PLC activity of PLCδ1 [3] | effect on PLC activity of PLCβ2 [4] | IC50 in liposome assay (A1) relative to solution assay (A2), fold lower [1] | IC50 of ADP relative to ATP (fold lower) ([1]; assays A1 and A2) | Structure (SMILES)
1 | 4.70 to 6.00 | 4.30 to 4.52 | not affected | not affected |  |  | Nc1ncnc2c1ncn2[C@@H]1O[C@H](COP(=O)(O)OP(=O)(O)OP(=O)(O)O)[C@@H](O)[C@H]1O [ATP]
2 | 4.70 to 6.00 | 4.30 to 4.52 | not affected | not affected | eight-fold | 2–4 fold | Nc1ncnc2c1ncn2[C@@H]1O[C@H](COP(=O)(O)OP(=O)(O)O)[C@@H](O)[C@H]1O [ADP]
